Where two headings read alike, the source gives them in different places.
What was measured:
Assay type in all cases: cell-based
human TLR9 = biological target: T1, human TLR9 (Homo sapiens, UniProt Q9NR96); experiment: TLR9 inhibition reporter assay (HEK-Blue cells, secreted embryonic alkaline phosphatase reporter)
T1 construct: host or cells: HEK-Blue cells (HEK293-derived reporter line)
T1 sequence (Q9NR96 26-1032): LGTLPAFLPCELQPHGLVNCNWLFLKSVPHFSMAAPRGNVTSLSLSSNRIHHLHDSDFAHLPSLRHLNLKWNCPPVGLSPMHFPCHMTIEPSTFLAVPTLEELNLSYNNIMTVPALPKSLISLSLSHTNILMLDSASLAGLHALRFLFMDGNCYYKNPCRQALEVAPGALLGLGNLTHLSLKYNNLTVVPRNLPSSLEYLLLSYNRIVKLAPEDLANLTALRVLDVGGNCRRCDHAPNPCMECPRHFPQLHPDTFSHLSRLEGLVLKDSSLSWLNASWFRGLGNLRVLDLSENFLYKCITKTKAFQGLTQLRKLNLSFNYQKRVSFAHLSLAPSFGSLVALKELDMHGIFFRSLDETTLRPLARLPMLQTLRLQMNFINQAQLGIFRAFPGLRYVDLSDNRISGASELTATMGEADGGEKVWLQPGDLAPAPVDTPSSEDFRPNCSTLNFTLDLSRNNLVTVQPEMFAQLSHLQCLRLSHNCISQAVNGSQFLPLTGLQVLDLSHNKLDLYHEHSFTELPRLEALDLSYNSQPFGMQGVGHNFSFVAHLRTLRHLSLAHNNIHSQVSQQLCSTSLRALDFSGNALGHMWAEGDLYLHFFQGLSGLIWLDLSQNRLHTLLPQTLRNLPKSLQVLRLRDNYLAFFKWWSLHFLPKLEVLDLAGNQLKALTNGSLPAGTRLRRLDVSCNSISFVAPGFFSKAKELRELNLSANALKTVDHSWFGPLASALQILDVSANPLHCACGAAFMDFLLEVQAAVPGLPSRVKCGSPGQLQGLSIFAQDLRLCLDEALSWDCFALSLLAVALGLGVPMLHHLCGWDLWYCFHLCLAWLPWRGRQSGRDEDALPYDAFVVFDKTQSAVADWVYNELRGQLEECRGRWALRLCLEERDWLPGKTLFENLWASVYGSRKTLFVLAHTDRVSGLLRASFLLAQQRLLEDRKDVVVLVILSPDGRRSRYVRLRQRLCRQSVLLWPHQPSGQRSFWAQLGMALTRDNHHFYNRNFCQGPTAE
In short: (§1)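 Agonist-driven SEAP output was measured in HEK-Blue reporter cells carrying human TLR7 (gardiquimod 7.5 μM), TLR8 (R848 15.9 μM) or TLR9 (ODN2006 5 nM). Compounds at 0.05 nM–50 μM final were added 30 min before stimulation at room temperature. After 22 h at 37 °C, percent inhibition was taken against agonist/DMSO wells and a reference inhibitor.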

human TLR7 = biological target: T2, human TLR7 (Homo sapiens, UniProt Q9NYK1); experiment: TLR7 inhibition reporter assay (HEK-Blue cells, secreted embryonic alkaline phosphatase reporter); details: HEK-Blue cells overexpressing human TLR7, stimulated with gardiquimod 7.5 μM; read-out: TLR 7 IC50
T2 construct: host or cells: HEK-Blue cells (HEK293-derived reporter line)
T2 sequence (Q9NYK1 27-1049): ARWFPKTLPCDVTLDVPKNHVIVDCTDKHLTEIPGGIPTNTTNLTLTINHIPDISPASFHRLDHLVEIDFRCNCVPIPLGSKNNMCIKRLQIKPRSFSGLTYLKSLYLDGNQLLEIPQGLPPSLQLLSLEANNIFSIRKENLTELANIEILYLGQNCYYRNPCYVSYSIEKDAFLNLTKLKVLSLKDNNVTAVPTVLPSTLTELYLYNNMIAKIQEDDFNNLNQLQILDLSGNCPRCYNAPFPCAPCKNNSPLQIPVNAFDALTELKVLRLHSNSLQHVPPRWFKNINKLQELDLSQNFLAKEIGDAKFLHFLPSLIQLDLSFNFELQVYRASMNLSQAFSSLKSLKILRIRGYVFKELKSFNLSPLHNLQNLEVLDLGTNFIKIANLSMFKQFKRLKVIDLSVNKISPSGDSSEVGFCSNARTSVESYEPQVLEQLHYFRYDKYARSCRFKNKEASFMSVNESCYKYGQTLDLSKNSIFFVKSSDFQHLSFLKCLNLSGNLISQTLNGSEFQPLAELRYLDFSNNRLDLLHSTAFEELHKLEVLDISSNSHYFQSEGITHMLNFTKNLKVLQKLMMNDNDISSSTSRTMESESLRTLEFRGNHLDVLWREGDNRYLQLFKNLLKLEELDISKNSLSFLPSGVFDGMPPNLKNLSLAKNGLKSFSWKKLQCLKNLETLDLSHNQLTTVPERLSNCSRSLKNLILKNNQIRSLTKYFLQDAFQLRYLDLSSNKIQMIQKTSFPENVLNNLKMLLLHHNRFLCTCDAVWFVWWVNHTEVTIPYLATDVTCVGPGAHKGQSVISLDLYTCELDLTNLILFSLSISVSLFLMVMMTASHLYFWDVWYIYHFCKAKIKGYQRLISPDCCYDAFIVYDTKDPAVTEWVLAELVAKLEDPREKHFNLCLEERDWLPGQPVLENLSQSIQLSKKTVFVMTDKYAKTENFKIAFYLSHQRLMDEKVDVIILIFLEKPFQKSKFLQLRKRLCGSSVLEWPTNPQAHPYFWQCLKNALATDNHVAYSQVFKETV
In short: as §1

human TLR8 = biological target: T3, human TLR8 (Homo sapiens, UniProt Q9NR97); experiment: TLR8 inhibition reporter assay (HEK-Blue cells, secreted embryonic alkaline phosphatase reporter); details: HEK-Blue cells overexpressing human TLR8, stimulated with R848 15.9 μM; read-out: TLR 8 IC50
T3 construct: host or cells: HEK-Blue cells (HEK293-derived reporter line)
T3 sequence (Q9NR97 27-1041): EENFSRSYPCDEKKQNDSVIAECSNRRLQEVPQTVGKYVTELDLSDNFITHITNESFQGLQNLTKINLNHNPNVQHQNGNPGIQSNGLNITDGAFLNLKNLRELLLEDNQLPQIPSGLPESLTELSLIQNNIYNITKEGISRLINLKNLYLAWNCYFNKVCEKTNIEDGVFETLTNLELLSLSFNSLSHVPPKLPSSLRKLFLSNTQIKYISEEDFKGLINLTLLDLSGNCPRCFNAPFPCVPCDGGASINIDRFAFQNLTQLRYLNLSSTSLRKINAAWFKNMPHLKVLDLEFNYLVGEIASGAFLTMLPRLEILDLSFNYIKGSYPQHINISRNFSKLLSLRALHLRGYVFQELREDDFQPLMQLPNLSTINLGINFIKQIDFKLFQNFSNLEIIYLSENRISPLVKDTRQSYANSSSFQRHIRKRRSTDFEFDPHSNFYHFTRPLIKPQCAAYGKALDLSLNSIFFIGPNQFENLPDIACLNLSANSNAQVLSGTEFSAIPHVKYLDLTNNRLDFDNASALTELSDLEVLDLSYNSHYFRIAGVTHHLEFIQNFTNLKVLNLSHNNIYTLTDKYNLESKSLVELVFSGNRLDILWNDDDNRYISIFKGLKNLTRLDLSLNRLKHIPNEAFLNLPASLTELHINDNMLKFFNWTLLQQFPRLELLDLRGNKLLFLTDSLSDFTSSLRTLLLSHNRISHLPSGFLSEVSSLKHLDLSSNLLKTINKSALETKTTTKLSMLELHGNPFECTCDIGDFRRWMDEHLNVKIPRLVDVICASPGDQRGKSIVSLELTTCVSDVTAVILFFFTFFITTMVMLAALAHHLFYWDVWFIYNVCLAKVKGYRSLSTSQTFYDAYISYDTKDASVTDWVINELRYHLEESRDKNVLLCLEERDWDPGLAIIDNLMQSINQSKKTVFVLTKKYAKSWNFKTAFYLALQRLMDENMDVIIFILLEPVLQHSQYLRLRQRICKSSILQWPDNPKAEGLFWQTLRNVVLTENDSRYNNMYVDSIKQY
In short: as §1

[1] = HEK-Blue cells overexpressing human TLR9, stimulated with ODN2006 5 nM, read-out: TLR 9 IC50
[2] = HEK-Blue human TLR9 reporter cells
[3] = HEK-Blue cells overexpressing human TLR9, stimulated with ODN2006 5 nM, 22 hour incubation, reporter readout

Compound	IC50 (human TLR9; [1])	IC50 (human TLR9; [2])	IC50 (human TLR7)	IC50 (human TLR8)	IC50 (human TLR9; [3])
COc1ccc(-c2nc3ccc(C4CCN(C5CCN(C(C)C)CC5)CC4)cc3n2C)cc1OC [Example 1, 2-(3,4-dimethoxyphenyl)-6-(1′-isopropyl-[1,4′-bipiperidin]-4-yl)-1-methyl-1H-benzo[d]imidazole]	–	–	5900 nM	1100 nM	56 nM
COc1ccc(-c2nc3ccc(C4CCN(C5CCN(C(C)C)CC5)CC4)cc3[nH]2)cc1OC [Example 2, 2-(3,4-dimethoxyphenyl)-6-(1′-isopropyl-[1,4′-bipiperidin]-4-yl)-1H-benzo[d]imidazole]	123 nM	–	16000 nM	> 50000 nM	120 nM
COc1ccc(-c2nc3ccc(C4CCN(C5CCN(C(C)C)CC5)CC4)cc3n2C(C)C)cc1OC [Example 3, 2-(3,4-dimethoxyphenyl)-1-isopropyl-6-(1′-isopropyl-[1,4′-bipiperidin]-4-yl)-1H-benzo[d]imidazole]	169 nM	–	280 nM	> 50000 nM	170 nM
COc1ccc(-c2nc3cc(C4CCN(C5CCN(C(C)C)CC5)CC4)ccc3n2C)cc1OC [Example 5, 2-(3,4-dimethoxyphenyl)-5-(1′-isopropyl-[1,4′-bipiperidin]-4-yl)-1-methyl-1H-benzo[d]imidazole]	–	–	6800 nM	840 nM	250 nM
COc1ccc(-c2nc3cc(C4CCN(C5CCN(C(C)C)CC5)CC4)ccc3n2C(C)C)cc1OC [Example 6, 2-(3,4-dimethoxyphenyl)-1-isopropyl-5-(1′-isopropyl-[1,4′-bipiperidin]-4-yl)-1H-benzo[d]imidazole]	191 nM	–	2900 nM	29000 nM	190 nM
COc1ccc(-c2nc3cc(C4CCN(C5CCN(C(C)C)CC5)CC4)c(C(F)(F)F)cc3[nH]2)cc1OC [Example 10, 2-(3,4-dimethoxyphenyl)-5-(1′-isopropyl-[1,4′-bipiperidin]-4-yl)-6-(trifluoromethyl)-1H-benzo[d]imidazole]	244 nM	–	> 50000 nM	> 50000 nM	240 nM

Now from value to compound:

IC50 (human TLR9; [1])	IC50 (human TLR9; [2])	IC50 (human TLR7)	IC50 (human TLR8)	IC50 (human TLR9; [3])	Compound
15 nM	15 nM	8200 nM	> 50000 nM	–	CS(=O)(=O)c1ccc(-c2nc3c(F)cc(C4CCN(C5CC6CCC(C5)N6CC5CC5)CC4)cc3n2C2CC2)cc1 (single isomer, unassigned) [Example 325, 1-cyclopropyl-6-(1-(8-(cyclopropylmethyl)-8-azabicyclo[3.2.1]octan-3-yl)piperidin-4-yl)-4-fluoro-2-(4-(methylsulfonyl)phenyl)-1H-benzo[d]imidazole]
23 nM	23 nM	1300 nM	> 50000 nM	–	CS(=O)(=O)c1ccc(-c2nc3c(F)cc(C4CCN(C5CC6CCC(C5)N6C5CCC5)CC4)cc3n2C2CC2)cc1 (single isomer, unassigned) [Example 326, 6-(1-(8-cyclobutyl-8-azabicyclo[3.2.1]octan-3-yl)piperidin-4-yl)-1-cyclopropyl-4-fluoro-2-(4-(methylsulfonyl)phenyl)-1H-benzo[d]imidazole]
111 nM	110 nM	2000 nM	18400 nM	–	CS(=O)(=O)c1ccc(-c2nc3c(F)cc(C4CCN(C5CC6CCC(C5)N6C5CCC5)CC4)cc3n2C2CC2)cc1 (single isomer, unassigned) [Example 327, 6-(1-(8-cyclobutyl-8-azabicyclo[3.2.1]octan-3-yl)piperidin-4-yl)-1-cyclopropyl-4-fluoro-2-(4-(methylsulfonyl)phenyl)-1H-benzo[d]imidazole]
11 nM	11 nM	200 nM	3100 nM	–	COc1cc(-c2nc3c(C)cc(C4CCN(C5CC6CCC(C5)N6C5CCC5)CC4)cc3n2C)cn2ncnc12 (single isomer, unassigned) [Example 355, 6-(6-(1-(8-cyclobutyl-8-azabicyclo[3.2.1]octan-3-yl)piperidin-4-yl)-1,4-dimethyl-1H-benzo[d]imidazol-2-yl)-8-methoxy-[1,2,4]triazolo[1,5-a]pyridine]
253 nM	–	4700 nM	> 50000 nM	250 nM	COc1ccc(-c2nc3ccc(C4CCN(C5CCN(C(C)C)CC5)CC4)cc3n2CC(F)F)cc1OC [Example 4, 1-(2,2-difluoroethyl)-2-(3,4-dimethoxyphenyl)-6-(1′-isopropyl-[1,4′-bipiperidin]-4-yl)-1H-benzo[d]imidazole]
283 nM	–	5700 nM	> 50000 nM	280 nM	COc1ccc(-c2nc3cc(C4CCN(C5CCN(C(C)C)CC5)CC4)ccc3n2CC(F)F)cc1OC [Example 7, 1-(2,2-difluoroethyl)-2-(3,4-dimethoxyphenyl)-5-(1′-isopropyl-[1,4′-bipiperidin]-4-yl)-1H-benzo[d]imidazole]
